From patent EP1464649A2, “Sugar derivatives comprising oxiranes or alpha,beta-unsaturated gamma-lactones, process for their preparation and their utilisation as pesticides” (Instituto Politécnico de Santarém / Escola Superior Agraria, priority 2003, dated 2004)
≈ marks a conversion by molar mass, not a printed value. Entries after “also recorded” stand apart in the source; their conditions may differ.

Tests used:
[1] = test system: brine shrimp A. salina larvae; experiment: in vivo; assay type: in vivo; details: Method F, 24 hour mortalities
Method: (§1) Freshly hatched brine shrimps were prepared by adding aquarium brine shrimp eggs to salt water (15 g sea salt per litre water). The following day hatchlings were separated from eggs and empty egg cases, using their phototropic movement and a Pasteur pipette.
(§2) Into each of a set of small glass vials was pipetted 195 µL of brine containing 5 shrimp larvae, using a micropipette. The solution of the test compound in 5 µL acetone was added, the vial closed and kept at 30±1°C for observation.
(§3) Dead and alive shrimps were counted, at 1 and 24 hours after treatment, using a microscope. Six concentrations and a control were used with 10 shrimps treated.
(§4) A blank test was performed for comparison of the results.
(§5) Dosages used in insect treatments were based upon the amount of compound applied to each insect. For the shrimps the final concentrations of the compounds in the immersion brine were used.
(§6) The 24 hour mortalities were used to calculate the LD50/LC50 using regression analysis of the probability percent mortality (probit) against log dose/concentration.^30 This was calculated using PoloPC software (LeOra Software, Berkeley, CA, 1994).

[2] = test system: fruit fly larvae; experiment: Method D: topical treatment of fruit fly larvae; assay type: in vivo, Drosophila melanogaster; details: for LD50: Method D, topical, fruit fly larvae; for toxicity for fruit fly larvae compared with adult flies: statement in words
Method: Fruit fly larvae were separated from the growing medium and second and third instars were topically treated with 0.2 µL acetone solutions of the compounds using a PAX microapplicator.
Larvae were held in padded forceps for dosing and then placed on moistened filter paper, at 30±1°C, for observation.
as §6

[3] = test system: house fly adults (M. domestica); experiment: Method E: topical treatment of house fly adults; assay type: in vivo, Musca domestica; details: adult house flies
Method: A culture of an insecticide-susceptible strain, Cooper, was established. Three-day-old adult house flies (body weight about 1.8 mg) were anaesthetised with carbon dioxide. Using the PAX microapplicator, a volume of 1 µL of acetone solution of the test compounds was applied to the dorsal cuticle, holding the fly in padded forceps.
Groups of flies were placed into closed vials, kept at 30 ±1°C, for observation.
as §6

[4] = test system: adult fruit fly (D. melanogaster); experiment: Method A: topical treatment of adult fruit fly; assay type: in vivo, Drosophila melanogaster; details: for LD50: Method A, topical, adult fruit flies, 24 hour mortalities; for activity against adult fruit flies: statement in words from LD50 values
Method: A culture of fruit flies (D. melanogaster) was used in the production of adult flies (approx 0.22 mg) of about seven days.
Serial dilutions of the compounds were prepared in acetone, and volumes of approximately 0.2 µL were applied to the ventral surface of each insect, using a calibrated PAX 100 microapplicator and a 1 mL syringe.
The fruit flies, in groups of 5, were anaesthetised using carbon dioxide. Prior to recovery the flies were placed in a containing vial and kept at 30±1°C, for observations of mortality at 1, 2, 3 and 24 hours after treatment.
For this purpose solutions of 6 different concentrations and a control were employed in groups of 12 and 20 insects. Control mortalities were normally zero but occasionally rose to 5-10%.
as §5, §6

[5] = test system: adult fruit flies; experiment: Method B: second method for topical treatment of adult fruit flies; assay type: in vivo, Drosophila melanogaster; details: topical 1 µL acetone solution
Method: Different dilutions of the compounds in acetone were prepared and applied to individual fruit flies using a Gilson piston micropipette.
Individual flies were held in padded forceps and 1 µL of acetone solution was applied. The acetone was allowed to evaporate before placing the fly into the vial for observation, kept at 30±1°C, following the standard methodology.
as §6

[6] = in vivo; assay type: in vivo; details: in vivo; Method F, brine shrimp larvae, 24 hour mortalities
Method: as §1, §2, §3, §4, §5, §6

[7] = test system: glasshouse white fly (T. vaporariorum); experiment: Method G: foliar treatment of glasshouse white fly; assay type: in vivo; details: for efficacy against white fly: statement in words
Method: Seedlings of tomato plants were infested with adult white fly. Selected leaves of the tomato plants were excised and carefully trimmed to 3 leaflets without disturbing the infestation. These were placed in glass tubes containing water and the leaflets were then sprayed on both sides with a small sprayer delivering for each one 200 µL of a solution of the test compound dissolved in 30% acetone in water.
Controls were sprayed with the solvent alone.
Counts of insects on the individual leaflets were made immediately after spraying and then at 14 hours following.
Where single dose treatments were used (in the case of whitefly assays), no statistics are available and the results are expressed as percent effect.
Five compounds were tested, which were applied spraying 600 µL of each compound solution (prepared according to method G) on the leaves of tomato plants infested with a known number of adult whitefly. After 14 hours, the number of dead insects (or eventually of insects that disappeared) was counted. These assays were performed at room temperature, between 20 and 25°C.

Molecule	LC50 [1] [µg/mL]	LD50 [4]	activity against adult fruit flies [4]	further results
CC(=O)OC[C@H]1OC(=O)C(Br)=C[C@@H]1OC(C)=O [Compound 5, 4,6-di-O-acetyl-2-bromo-2,3-dideoxy-D-erythro-hex-2-enone-1,5-lactone]	38.36 (≈ 125 µM)	0.00016 µg/insect		LD50 [2]: 4.75 µg/insect; toxicity for fruit fly larvae compared with adult flies [2]: less toxic for larvae than for adult flies; LD50 [3]: 1.065 µg/insect
CC1=C[C@H]([C@H]2O[C@@H]3OC(C)(C)O[C@@H]3[C@H]2OCc2ccccc2)OC1=O [Compound 1, 3-O-benzyl-6,7-dideoxy-1,2-O-isopropylidene-7-methyl-α-D-gluco-oct-6-enefuranurono-8,5-lactone]	100.62 (≈ 290 µM)	0.00002 µg/insect	extremely active	
CC1=C[C@H]([C@H]2O[C@@H]3OC(C)(C)O[C@@H]3[C@@H]2OCc2ccccc2)OC1=O [Compound 2, 3-O-benzyl-6,7-dideoxy-1,2-O-isopropylidene-7-methyl-α-D-alo-oct-6-enefuranurono-8,5-lactone]	64.30 (≈ 186 µM)		extremely active	LD50 [5]: 0.00398 µg/insect
O=[N+]([O-])NC1=NCCN1Cc1ccc(Cl)nc1 [Imidacloprid, reference compound]		0.01253 µg/insect		LC50 at 24 h [6]: 0.0312 µg/mL (≈ 0.122 µM)
CC1(C)OC2OC(C3CC(C)([Se]c4ccccc4)C(=O)O3)C(OCc3ccccc3)C2O1 [Compound 8, (7R)-/(7S)-3-O-Benzyl-6,7-dideoxy-1,2-O-isopropylidene-7-methyl-7-phenylselenyl-α-D-gluco-octofuranurono-8,5-lactone]	220.41 (≈ 438 µM)	0.00037 µg/insect		toxicity for fruit fly larvae compared with adult flies [2]: less toxic for larvae than for adult flies; LD50 [3]: 0.644 µg/insect
(7R)-/(7S)-3,6,7-Trideoxy-1,2-O-isopropylidene-7-methyl-7-phenylselenyl-α-D-ribo-octofuranurono-8,5-lactone [Compound 7]	261.04	0.0002 µg/insect		% Control of White Fly ([7]; Concentration 4.8 µg/mL, sprayed tomato leaves, 14 hours): 0%; LD50 [2]: 0.968 µg/insect
COC1OC(C2CC(C)([Se]c3ccccc3)C(=O)O2)C2OC12 [Compound 6, methyl (7R)-/(7S)-2,3-anhydro-6,7-dideoxy-7-methyl-7-phenylselenyl-β-L-gulo-octofuranurono-8,5-lactone]	125.48 (≈ 340 µM)	0.00015 µg/insect		% Control of White Fly ([7]; Concentration 1.3 µg/mL, sprayed tomato leaves, 14 hours): 0%
CC1(C)O[C@H]2O[C@H]([C@H]3C=CC(=O)O3)[C@H](OCc3ccccc3)[C@H]2O1 [Compound 4, 3-O-benzyl-6,7-dideoxy-1,2-O-isopropylidene-α-D-gluco-oct-6-enefuranurono-8,5-lactone]	358.92 (≈ 1080 µM)	0.00012 µg/insect		% Control of White Fly ([7]; foliar, 14 h, 2.5 ug/mL): 50%; efficacy against white fly [7]: show efficacy as insecticides; also recorded: promising for activity against the white fly
CC1(C)O[C@H]2O[C@H]([C@H]3C=CC(=O)O3)[C@@H](OCc3ccccc3)[C@H]2O1 [Compound 3, 3-O-benzyl-6,7-dideoxy-1,2-O-isopropylidene-α-D-alo-oct-6-enefuranurono-8,5-lactone]	144.71 (≈ 435 µM)	5.02x10^-6 µg/insect	extremely active	% Control of White Fly ([7]; foliar, 14 h, 1.3 ug/mL): 0%
Methyl 2,3;5,6-Dianhydro-β-L-gulofuranoside [Compound 9]	671.50	0.00003 µg/insect	extremely active	% Control of White Fly ([7]; Concentration 2.5 µg/mL, sprayed tomato leaves, 14 hours): 85%; efficacy against white fly [7]: show efficacy as insecticides; also recorded: promising for activity against the white fly
